Earlier results on eight molecules are cited in patent publication US12584131B2, “Methods of gene therapy” (OREGON HEALTH & SCIENCE UNIVERSITY, priority 2018, dated 2026).

The series relates to CYP enzymes.
[1] abbreviates: CYP enzymes that activate the prodrug (protoxin).

Each structure is given as a SMILES string. Where two headings read alike, the source gives them in different places.

On to `CC(=O)Nc1ccc(O)cc1` [Acetaminophen], for which the “Metabolizing CYP” value is “CYP2E1, CYP1A2, CYP3A4, CYP2D6”. Where the note is “listed as acetaminophen”, the “Metabolizing CYP” value was “CYP1A2, CYP2E1, and CYP3A4”. As to `CN(C)/N=N/c1[nH]cnc1C(N)=O` [Dascarbazine], the “Metabolizing CYP” value under setting [1] is given as “CYP1A1, CYP1A2, CYP2E1”. In the case of `Nc1c2c(nc3ccccc13)CCCC2` [Tacrine], the “Metabolizing CYP” value under setting [1] is “CYP1A2”. In the case of `C/C=C1\C[C@@H](C)[C@@](C)(O)C(=O)OC/C2=C/CN(C)CC[C@@H](OC1=O)C2=O` [Senkirkin], the “Metabolizing CYP” value under setting [1] is listed as “CYP3A4”. For the molecule `O=c1[nH]c(=O)n(C2CCCO2)cc1F` (stereo not drawn) [Tegafur], the “Metabolizing CYP” value under setting [1] is “CYP2A6, CYP1A2, CYP2C8”. For `O=P1(N(CCCl)CCCl)NCCCO1` (stereo not drawn) [Cyclophosphamide], the “Metabolizing CYP” value is recorded as “CYP2B6, CYP2C9, CYP3A4”. As for `COc1cccc(C2(O)CCCCC2CN(C)C)c1` (stereo not drawn) [Tramadol], under setting [1], the “Metabolizing CYP” value is recorded as “CYP2D6”. On to `CC(=O)N1CCN(c2ccc(OCC3COC(Cn4ccnc4)(c4ccc(Cl)cc4Cl)O3)cc2)CC1` (stereo not drawn) [Ketoconazole], for which the “Metabolizing CYP” value under setting [1] was “CYP3A4”.
